Calls of active or inactive are those of the source.
How the values were obtained:
[1] = reduction of Shn3 3'UTR-driven luciferase in osteoblasts – cell-based, Clone20 osteoblasts, firefly luciferase, cherry-picked, dose response (AID 624132); format: functional;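 also: firefly luciferase luminescence from reporter carrying the Shn3 3'UTR in osteoblasts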
INS1 = assay: INS-1E survival protection against cytokine death – cell-based, luminescence, retest, dose response (AID 449756); format: functional; details: Rattus norvegicus;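 also: cell death triggered by IL-1 beta plus TNF-alpha plus IFN-gamma mixture; protective hits raise ATP signal compared with cytokine alone wells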
[2] = loss of viability in HepG2 cells – cell-based, CellTiter-Glo, cherry-picked, cytotoxicity control for Shn3 inhibitor project, dose response (AID 624134); format: functional
[3] = non-specific 3'UTR reporter inhibition in Clone20-Shn3RL – cell-based, Renilla luciferase, cherry-picked, counter-screen for Shn3 inhibitor project, dose response (AID 624133); format: functional
[4] = Shn3 3'UTR reporter signal decrease – cell-based, Clone20 osteoblasts, firefly luciferase, cherry-pick, set 2, Schnurri-3 inhibitor project, dose response (AID 720490); format: functional;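 also: actives lower the luminescence signal as inhibitors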
[5] = IC50 of insulin release inhibition, rat insulinoma INS-1E line, 5 mM glucose, cell-based (AID 1117331); format: functional
[6] = NIH3T3 cell viability loss – ATP luminescence, mouse fibroblasts, counter-screen, dose response (AID 2010); format: functional, cell-based;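 also: cells exposed to compound for about 90 hours before reading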
[7] = molecular target: T1, Ubiquitin-conjugating enzyme E2 N (Homo sapiens, UniProt P61088); format: functional;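 also: Dose-response confirmation in a TR-FRET assay detecting UBC13-driven polyubiquitin chain formation, inhibition measured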
T1 sequence (P61088 whole entry): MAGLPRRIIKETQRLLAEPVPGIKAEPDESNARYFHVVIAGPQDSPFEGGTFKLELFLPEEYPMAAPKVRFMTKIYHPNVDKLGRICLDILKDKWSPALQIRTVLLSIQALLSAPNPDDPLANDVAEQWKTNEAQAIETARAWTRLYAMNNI

Streptococcus = assay: GAS UMAA2166 growth inhibition – luminescence, BacTiterGlo, counter-screen for streptokinase expression inhibitor project, dose response (AID 1915); format: functional, organism-based;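 also: potency for reduction of bacterial viability or growth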
[8] = molecular target: T2, Apoptotic protease-activating factor 1 (Homo sapiens, UniProt O14727); format: functional
T2 sequence (O14727 whole entry): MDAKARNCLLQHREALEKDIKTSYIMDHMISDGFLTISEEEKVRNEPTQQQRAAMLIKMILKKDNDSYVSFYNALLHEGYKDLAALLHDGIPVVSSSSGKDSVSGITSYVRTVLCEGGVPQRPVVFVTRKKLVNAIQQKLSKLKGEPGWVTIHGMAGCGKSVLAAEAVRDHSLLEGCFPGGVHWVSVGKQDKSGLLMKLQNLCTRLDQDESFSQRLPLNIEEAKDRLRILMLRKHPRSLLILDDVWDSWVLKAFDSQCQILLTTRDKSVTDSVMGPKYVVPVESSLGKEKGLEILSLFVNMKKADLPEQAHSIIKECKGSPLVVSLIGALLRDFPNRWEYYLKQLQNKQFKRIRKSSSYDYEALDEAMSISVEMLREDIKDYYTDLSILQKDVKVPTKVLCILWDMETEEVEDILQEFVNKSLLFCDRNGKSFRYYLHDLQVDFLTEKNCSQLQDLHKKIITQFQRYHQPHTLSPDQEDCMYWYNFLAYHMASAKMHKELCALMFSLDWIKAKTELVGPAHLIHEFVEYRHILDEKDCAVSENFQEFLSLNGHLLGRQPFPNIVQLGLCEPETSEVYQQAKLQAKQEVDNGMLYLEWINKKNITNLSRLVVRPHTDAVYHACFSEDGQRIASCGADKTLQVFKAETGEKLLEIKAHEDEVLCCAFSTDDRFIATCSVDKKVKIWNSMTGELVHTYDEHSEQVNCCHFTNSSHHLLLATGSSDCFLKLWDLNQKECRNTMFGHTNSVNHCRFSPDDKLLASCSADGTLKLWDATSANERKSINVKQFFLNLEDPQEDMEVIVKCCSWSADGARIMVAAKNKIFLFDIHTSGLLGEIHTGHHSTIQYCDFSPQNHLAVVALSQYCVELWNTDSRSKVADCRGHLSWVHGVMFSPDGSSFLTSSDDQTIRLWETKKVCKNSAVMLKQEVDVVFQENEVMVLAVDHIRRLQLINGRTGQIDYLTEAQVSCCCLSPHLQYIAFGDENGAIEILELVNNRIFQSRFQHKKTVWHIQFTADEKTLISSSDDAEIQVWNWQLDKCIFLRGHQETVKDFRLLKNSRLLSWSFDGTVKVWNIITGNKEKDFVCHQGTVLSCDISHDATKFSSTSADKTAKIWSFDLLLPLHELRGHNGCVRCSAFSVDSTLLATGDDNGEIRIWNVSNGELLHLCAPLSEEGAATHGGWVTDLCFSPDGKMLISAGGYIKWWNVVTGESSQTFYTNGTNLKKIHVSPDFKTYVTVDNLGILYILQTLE

[9] = Trypanosoma cruzi growth suppression in host cells – NIH3T3 host cells, beta-gal luminescence, confirmation (AID 2044); format: functional, cell-based;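 also: intracellular parasites grown in NIH/3T3 mouse fibroblasts as host cells; luminescent beta-galactosidase reporter signal from transgenic T. cruzi replicating inside host cells; inhibitors lower the luminescence signal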
[10] = molecular target: Heat shock protein HSP 90-alpha (Homo sapiens, UniProt P07900); format: functional, organism-based
Protein RecA = molecular target: T3, Protein RecA (Mycobacterium tuberculosis, UniProt P9WHJ3); assay: Fluorescence Cell-Free Homogeneous Dose Retest to Identify Inhibitors of RecA-Intein Splicing Activity. [Related pubchem assays (depositor defined):AID2097, AID2223, AID489010, AID492950]; format: functional
T3 sequence (P9WHJ3 whole entry): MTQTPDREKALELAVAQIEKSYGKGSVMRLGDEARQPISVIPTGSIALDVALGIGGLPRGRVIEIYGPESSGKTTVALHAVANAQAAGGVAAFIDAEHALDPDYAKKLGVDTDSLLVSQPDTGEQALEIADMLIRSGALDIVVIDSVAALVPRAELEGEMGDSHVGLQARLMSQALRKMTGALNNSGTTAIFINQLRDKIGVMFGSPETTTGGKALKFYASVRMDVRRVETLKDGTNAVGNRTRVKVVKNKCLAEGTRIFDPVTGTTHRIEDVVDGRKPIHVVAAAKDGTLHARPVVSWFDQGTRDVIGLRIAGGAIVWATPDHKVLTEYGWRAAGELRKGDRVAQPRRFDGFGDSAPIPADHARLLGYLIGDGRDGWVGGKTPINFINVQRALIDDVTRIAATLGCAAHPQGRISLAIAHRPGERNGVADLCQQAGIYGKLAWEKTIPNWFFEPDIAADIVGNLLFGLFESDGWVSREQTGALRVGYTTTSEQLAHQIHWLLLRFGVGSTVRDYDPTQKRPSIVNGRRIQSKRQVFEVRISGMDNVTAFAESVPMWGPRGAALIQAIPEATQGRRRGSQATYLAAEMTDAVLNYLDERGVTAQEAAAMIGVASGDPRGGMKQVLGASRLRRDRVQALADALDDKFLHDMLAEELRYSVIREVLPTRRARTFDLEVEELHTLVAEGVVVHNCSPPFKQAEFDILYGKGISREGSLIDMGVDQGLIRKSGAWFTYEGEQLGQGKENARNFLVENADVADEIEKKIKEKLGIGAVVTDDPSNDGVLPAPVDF

[11] = molecular target: DNA repair protein RAD52 homolog (Homo sapiens, UniProt P43351); format: functional, biochemical
Melanocortin receptor 4 = Melanocortin receptor 4 (Homo sapiens, UniProt P32245); format: functional, cell-based;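 also: Cell-based assay with luminescence read-out, confirmatory dose-response testing for agonist activity of biased ligands at MC4R; human U2OS cells with tagged receptor and beta-arrestin; potency of agonists that increase receptor coupling to beta-arrestin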
[12] = tested on: Streptococcus sp. 'group A'; assay: Streptococcus pyogenes SK(-)GAS viability under kanamycin – luminescence, BacTiterGlo, confirmation, counter-screen for streptokinase expression inhibitor project, dose response (AID 1900); format: functional, organism-based
[13] = molecular target: T4, Replicative DNA helicase DnaB (Mycobacterium tuberculosis, UniProt P9WMR3); assay: DnaB intein splicing inhibitors, dose response, biochemical, cell-free fluorescence (AID 449749); format: functional
T4 sequence (P9WMR3 whole entry): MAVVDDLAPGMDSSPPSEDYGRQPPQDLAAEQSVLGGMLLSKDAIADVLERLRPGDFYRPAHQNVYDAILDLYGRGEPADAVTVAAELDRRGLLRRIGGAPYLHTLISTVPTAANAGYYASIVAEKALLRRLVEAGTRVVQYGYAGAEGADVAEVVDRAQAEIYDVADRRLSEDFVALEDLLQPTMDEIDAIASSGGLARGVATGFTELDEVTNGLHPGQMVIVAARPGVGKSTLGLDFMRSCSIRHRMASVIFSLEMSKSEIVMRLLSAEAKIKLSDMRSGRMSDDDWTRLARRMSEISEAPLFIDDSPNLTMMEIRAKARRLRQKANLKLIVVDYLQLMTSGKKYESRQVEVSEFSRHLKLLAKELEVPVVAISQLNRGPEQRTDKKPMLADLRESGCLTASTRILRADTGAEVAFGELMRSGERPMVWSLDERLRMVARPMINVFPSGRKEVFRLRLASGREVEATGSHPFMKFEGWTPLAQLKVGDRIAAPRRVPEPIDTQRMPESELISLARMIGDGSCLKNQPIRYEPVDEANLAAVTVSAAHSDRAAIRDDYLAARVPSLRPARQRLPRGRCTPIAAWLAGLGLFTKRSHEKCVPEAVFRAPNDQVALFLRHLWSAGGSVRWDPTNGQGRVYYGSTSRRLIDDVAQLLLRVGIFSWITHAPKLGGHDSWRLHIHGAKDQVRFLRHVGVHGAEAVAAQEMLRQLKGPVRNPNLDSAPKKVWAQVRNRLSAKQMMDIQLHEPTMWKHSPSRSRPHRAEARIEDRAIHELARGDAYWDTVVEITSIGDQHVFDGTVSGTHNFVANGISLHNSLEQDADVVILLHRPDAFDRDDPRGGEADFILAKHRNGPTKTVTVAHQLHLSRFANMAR

[14] = CMV-driven luciferase expression suppression in HEK293 – cell-based, luminescence, dry powder, counter-screen for Pax8 inhibitor project, dose response (AID 743020); format: functional
[15] = molecular target: Delta-type opioid receptor (Homo sapiens, UniProt P41143); assay: Counterscreen for agonists of heterodimerization of the mu 1 (OPRM1) and delta 1 (OPRD1) opioid receptors: Luminescence-based cell-based high throughput dose response assay to identify agonists of OPRD1 homodimerization. [Related pubchem assays (depositor defined):AID504326, AID504355, AID504692, AID504904, AID504905]; format: functional
[16] = molecular target: 5-hydroxytryptamine receptor 5A (Homo sapiens, UniProt P47898); assay: Counterscreen for agonists of OPRM1-OPRD1 heterodimerization: luminescence-based cell-based high throughput dose response assay to identify agonists of 5-hydroxytryptamine (serotonin) 5A receptor (HTR5A). [Related pubchem assays (depositor defined):AID504326, AID504355, AID504692, AID504904, AID504905]; format: functional
[17] = general cell-killing toxicity readout – plate reader, dry powder samples, cytotoxicity control for PAX8 inhibitor project, dose response (AID 743021); format: functional, cell-based
Paired box protein Pax-8 = Paired box protein Pax-8 (Homo sapiens, UniProt Q06710); assay: PAX8 transcriptional activity inhibition in RMG-I – RMG-I cells, luciferase, cherry-pick, dose response (AID 687027); format: functional, cell-based;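 also: luciferase reporter driven by Pax8 target thyroperoxidase promoter measured by SteadyGlo luminescence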
Mu-type opioid receptor = Mu-type opioid receptor (Homo sapiens, UniProt P35372); assay: Counterscreen for agonists of heterodimerization of the mu 1 (OPRM1) and delta 1 (OPRD1) opioid receptors: Luminescence-based cell-based high throughput dose response assay to identify agonists of OPRM1 homodimerization.; format: functional;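 also: U2OS cells expressing OPRM1 and beta-arrestin as split beta-galactosidase partners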
[18] = molecular target: NAD-dependent protein deacylase sirtuin-5, mitochondrial (Homo sapiens, UniProt Q9NXA8); assay: sirtuin-5 deacylation blockers, concentration series – biochemical, fluorescence imaging, cherry-pick, set 5, dose response (AID 720591);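 also: desuccinylation of succinyl peptide AMC substrate read as fluorescence after trypsin release; potency of inhibitors that lower fluorescence and may act on trypsin instead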
Sequence of NAD-dependent protein deacylase sirtuin-5, mitochondrial (Q9NXA8 whole entry): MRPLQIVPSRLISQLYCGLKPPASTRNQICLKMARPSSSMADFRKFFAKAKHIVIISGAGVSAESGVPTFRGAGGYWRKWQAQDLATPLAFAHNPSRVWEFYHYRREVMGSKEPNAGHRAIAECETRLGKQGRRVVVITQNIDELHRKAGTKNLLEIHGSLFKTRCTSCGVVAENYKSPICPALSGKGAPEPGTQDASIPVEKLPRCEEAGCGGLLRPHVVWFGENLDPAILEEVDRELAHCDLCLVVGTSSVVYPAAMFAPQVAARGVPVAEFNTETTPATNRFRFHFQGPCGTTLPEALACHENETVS

Sequence of DNA repair protein RAD52 homolog (P43351 whole entry): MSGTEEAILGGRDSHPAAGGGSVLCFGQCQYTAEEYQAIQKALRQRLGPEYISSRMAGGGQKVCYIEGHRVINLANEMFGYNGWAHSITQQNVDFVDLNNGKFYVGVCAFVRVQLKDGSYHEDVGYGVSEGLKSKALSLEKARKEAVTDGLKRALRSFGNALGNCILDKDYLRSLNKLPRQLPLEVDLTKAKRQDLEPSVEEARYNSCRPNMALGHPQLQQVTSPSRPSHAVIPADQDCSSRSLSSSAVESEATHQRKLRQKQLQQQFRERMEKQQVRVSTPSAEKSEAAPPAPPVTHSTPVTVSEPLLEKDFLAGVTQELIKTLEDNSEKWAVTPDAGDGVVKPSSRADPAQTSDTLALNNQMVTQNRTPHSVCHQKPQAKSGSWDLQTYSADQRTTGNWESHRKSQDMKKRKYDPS
Sequence of Melanocortin receptor 4 (P32245 whole entry): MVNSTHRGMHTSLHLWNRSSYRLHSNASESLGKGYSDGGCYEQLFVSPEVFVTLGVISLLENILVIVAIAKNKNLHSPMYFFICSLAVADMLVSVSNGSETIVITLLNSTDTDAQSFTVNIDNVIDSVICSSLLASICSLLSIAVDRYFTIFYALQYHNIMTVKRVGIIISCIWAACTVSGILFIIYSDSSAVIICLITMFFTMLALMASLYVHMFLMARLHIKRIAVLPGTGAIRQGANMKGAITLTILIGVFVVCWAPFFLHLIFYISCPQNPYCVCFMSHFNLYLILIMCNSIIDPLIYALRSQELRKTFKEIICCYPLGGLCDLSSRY
Sequence of Paired box protein Pax-8 (Q06710 whole entry): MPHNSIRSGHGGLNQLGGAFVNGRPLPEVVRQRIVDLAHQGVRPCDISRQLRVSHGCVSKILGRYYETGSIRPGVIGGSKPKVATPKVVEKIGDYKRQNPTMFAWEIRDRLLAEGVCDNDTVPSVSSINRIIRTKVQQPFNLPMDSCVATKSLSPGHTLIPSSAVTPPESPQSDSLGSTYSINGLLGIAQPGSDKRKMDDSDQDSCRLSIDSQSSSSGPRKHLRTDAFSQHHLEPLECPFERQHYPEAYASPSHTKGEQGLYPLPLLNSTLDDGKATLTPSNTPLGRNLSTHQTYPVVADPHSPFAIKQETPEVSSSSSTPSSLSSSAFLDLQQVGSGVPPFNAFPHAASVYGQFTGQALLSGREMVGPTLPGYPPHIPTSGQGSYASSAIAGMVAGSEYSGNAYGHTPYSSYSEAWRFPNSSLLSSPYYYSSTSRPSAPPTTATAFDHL
Sequence of Delta-type opioid receptor (P41143 whole entry): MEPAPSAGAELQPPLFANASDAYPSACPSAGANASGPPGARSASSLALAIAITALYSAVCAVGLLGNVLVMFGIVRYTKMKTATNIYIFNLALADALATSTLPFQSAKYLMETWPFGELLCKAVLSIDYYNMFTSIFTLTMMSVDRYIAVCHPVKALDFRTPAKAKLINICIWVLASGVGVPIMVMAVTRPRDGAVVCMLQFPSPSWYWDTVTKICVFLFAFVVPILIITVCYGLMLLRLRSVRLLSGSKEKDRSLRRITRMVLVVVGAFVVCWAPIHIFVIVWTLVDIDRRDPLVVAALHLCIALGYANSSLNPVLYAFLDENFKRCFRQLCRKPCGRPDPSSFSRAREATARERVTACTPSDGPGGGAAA
Sequence of Mu-type opioid receptor (P35372 whole entry): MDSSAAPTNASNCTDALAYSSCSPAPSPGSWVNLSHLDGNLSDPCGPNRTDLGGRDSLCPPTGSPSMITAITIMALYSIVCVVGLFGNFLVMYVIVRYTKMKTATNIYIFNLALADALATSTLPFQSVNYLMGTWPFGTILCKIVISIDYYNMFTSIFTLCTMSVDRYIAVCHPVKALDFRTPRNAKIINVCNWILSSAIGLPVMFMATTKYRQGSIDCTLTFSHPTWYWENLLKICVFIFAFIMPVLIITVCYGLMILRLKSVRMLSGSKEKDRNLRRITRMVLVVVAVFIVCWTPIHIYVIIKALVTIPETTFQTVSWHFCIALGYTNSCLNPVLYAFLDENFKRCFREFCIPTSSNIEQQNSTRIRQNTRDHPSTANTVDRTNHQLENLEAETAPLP
Sequence of 5-hydroxytryptamine receptor 5A (P47898 whole entry): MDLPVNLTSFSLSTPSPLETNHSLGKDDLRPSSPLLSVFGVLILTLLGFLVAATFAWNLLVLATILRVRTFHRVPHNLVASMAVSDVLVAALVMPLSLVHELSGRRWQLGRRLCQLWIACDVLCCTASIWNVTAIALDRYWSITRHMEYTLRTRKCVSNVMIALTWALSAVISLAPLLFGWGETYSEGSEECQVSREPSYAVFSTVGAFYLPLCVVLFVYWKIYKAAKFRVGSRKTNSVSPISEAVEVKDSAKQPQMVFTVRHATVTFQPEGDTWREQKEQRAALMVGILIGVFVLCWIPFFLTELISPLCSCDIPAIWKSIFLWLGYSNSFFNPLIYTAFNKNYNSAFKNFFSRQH

## Cc1ccc(NC(=O)c2cc(S(=O)(=O)NCCC3=CCCCC3)ccc2F)cc1F
[1]
  AC50: 4.13 µM (active)
INS1
  AC50: 3.03 µM (active)
[2]
  AC50: 41.5 µM (active)
[3]
  AC50: 46.1 µM (active)
[4]
  AC50: 3.83 µM (active)

## C[C@@H](CN(C)C)CN1c2ccccc2Sc2ccccc21
[5]
  IC50: > 33.3 µM (inactive)

## CCCCCCCCCCOC(=O)C[n+]1c(COc2cccc(C)c2)n(C)c2ccccc21
[6]
  EC50: > 60 µM (not active)
[7]
  IC50: > 20 µM (inactive)
Streptococcus
  EC50: 7.73 µM (active)
INS1
  AC50: 3.87 µM (active)
[8]
  IC50: 15.9 µM (active)
[9]
  EC50: 1 µM (active)
[10]
  AC50: 32.5 µM (active)
Protein RecA
  EC50: 9.88 µM (active)
[11]
  AC50: 11.9 µM (active)
Melanocortin receptor 4
  EC50: > 89.2 µM (inactive)
[12]
  EC50: 4.16 µM (active)
[13]
  AC50: 3.19 µM (active)

## CCCCC(=O)N1CCN(c2ccc(OC)cc2[N+](=O)[O-])CC1
[14]
  AC50: < 21.5 µM (active)

## CCN1CCN(Cc2ccc(NC(=O)c3ccc(C)c(NC(=O)c4cnc5cc(C(F)(F)F)ccc5c4O)c3)cc2C(F)(F)F)CC1
[7]
  IC50: > 20 µM (inactive)
[15]
  EC50: 11.2 µM (inactive)
INS1
  AC50: 4.42 µM (active)
[16]
  EC50: > 92.5 µM (inactive)
[17]
  AC50: 26.2 µM (active)
Paired box protein Pax-8
  AC50: 10.6 µM (active)
Mu-type opioid receptor
  EC50: > 92.5 µM (inactive)

## CS(=O)(=O)N(CC(=O)N1CCCCC1)c1cccc(F)c1
[18]
  AC50: 29.7 µM (active)

Source: ChEMBL document CHEMBL1201862, “PubChem BioAssay data set” (2004)
